Results as given in ChEMBL document CHEMBL1201862, “PubChem BioAssay data set” (2004).
Active and inactive are the calls of the source.

Experiments:
[1] = target: T1, Ubiquitin-conjugating enzyme E2 N (Homo sapiens, UniProt P61088); assay type: functional
T1 sequence (P61088 whole entry): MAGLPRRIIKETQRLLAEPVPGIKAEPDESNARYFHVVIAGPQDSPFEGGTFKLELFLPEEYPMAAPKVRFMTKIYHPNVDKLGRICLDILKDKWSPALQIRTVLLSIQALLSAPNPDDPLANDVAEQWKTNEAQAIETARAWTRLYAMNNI

[2] = target: T1, Ubiquitin-conjugating enzyme E2 N; assay type: functional; remark: listed apart in the source
[3] = target: T2, Bcl-2-related protein A1 (Mus musculus, UniProt Q07440); assay type: functional;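 note: confirmatory dose–response counterscreen on Bfl-1, used to check hits from a UBC13 polyubiquitin inhibitor campaign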
T2 sequence (Q07440 whole entry): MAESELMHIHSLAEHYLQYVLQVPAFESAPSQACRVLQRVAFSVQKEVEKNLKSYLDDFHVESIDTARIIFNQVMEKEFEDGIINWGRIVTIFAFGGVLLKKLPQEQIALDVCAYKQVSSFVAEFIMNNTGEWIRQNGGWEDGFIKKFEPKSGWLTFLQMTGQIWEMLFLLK

[4] = target: T3, Type-1 angiotensin II receptor (Homo sapiens, UniProt P30556); test: agonist activity at AGTR1 – cell-based, uHTS hits, selectivity assay for APJ receptor agonist project, dose response (AID 488865); assay type: functional;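 note: beta-arrestin recruitment to AT1 measured by enzyme fragment complementation luminescence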
T3 sequence (P30556 whole entry): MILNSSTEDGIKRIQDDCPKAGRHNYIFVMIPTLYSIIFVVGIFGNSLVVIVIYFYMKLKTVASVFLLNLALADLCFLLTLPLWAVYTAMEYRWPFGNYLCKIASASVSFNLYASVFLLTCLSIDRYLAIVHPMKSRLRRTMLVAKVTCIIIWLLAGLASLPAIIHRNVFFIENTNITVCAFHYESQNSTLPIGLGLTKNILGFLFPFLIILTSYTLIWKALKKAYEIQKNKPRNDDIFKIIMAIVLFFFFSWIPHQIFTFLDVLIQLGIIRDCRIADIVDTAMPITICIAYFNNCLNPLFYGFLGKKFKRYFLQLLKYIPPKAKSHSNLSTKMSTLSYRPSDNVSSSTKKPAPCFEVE

[5] = target: T4, Tyrosine-protein phosphatase non-receptor type 7 (Homo sapiens, UniProt P35236); assay type: functional
T4 sequence (P35236 whole entry): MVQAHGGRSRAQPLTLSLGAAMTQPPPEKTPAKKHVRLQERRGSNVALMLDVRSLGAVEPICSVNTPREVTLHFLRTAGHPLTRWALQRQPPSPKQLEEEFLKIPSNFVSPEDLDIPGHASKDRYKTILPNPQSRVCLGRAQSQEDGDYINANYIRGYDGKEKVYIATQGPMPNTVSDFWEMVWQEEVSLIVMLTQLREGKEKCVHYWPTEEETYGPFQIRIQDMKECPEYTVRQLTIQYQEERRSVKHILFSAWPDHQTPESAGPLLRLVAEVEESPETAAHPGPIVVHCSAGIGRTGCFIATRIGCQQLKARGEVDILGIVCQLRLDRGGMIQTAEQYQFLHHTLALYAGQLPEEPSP

[6] = target: T5, Tyrosine-protein phosphatase non-receptor type 22 (Homo sapiens, UniProt Q9Y2R2); assay type: functional
T5 sequence (Q9Y2R2 whole entry): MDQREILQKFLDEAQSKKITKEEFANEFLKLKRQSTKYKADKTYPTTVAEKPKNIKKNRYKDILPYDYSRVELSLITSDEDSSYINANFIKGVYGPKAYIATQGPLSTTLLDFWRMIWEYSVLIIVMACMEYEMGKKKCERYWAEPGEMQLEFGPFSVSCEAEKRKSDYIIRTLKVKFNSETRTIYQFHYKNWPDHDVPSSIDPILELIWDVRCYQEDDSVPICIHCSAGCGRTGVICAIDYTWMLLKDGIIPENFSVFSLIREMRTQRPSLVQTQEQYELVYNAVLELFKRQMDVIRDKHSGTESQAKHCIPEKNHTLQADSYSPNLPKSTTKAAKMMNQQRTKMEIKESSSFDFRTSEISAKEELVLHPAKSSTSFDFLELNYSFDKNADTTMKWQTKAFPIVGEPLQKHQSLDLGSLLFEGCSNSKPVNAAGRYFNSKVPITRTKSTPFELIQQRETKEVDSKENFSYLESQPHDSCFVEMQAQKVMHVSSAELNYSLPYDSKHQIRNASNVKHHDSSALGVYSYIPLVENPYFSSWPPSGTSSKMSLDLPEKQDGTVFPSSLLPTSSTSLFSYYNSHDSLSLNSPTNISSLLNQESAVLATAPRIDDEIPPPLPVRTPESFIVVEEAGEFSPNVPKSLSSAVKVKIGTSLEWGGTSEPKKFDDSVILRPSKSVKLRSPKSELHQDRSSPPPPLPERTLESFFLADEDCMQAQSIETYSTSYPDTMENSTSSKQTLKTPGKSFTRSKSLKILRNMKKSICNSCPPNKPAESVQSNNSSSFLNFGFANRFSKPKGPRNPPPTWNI

[7] = target: T5, Tyrosine-protein phosphatase non-receptor type 22; assay type: functional; remark: listed apart in the source
[8] = target: Lysine-specific demethylase 4C (Homo sapiens, UniProt Q9H3R0); test: inhibition of JMJD2C H3K9me3 demethylation – biochemical, DELFIA europium, cherry-picked samples, dose response (AID 488835); assay type: functional
[9] = target: T6, Endoribonuclease toxin MazF (Escherichia coli K-12, UniProt P0AE70); test: substrate-only fluorescence increase artefacts – biochemical, single-stranded RNase substrate, counter-screen for MazEF activator project, dose response (AID 588502); assay type: functional
T6 sequence (P0AE70 whole entry): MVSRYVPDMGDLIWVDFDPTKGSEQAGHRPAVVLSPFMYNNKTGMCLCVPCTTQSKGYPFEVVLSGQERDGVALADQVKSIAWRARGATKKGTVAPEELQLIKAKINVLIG

[10] = target: T6, Endoribonuclease toxin MazF; test: activation of MazEF endoribonuclease cleavage – biochemical, fluorescence, single-stranded RNA substrate, uHTS hits, dose response (AID 588481); assay type: functional
[11] = target: T7, E3 ubiquitin-protein ligase XIAP (Homo sapiens, UniProt P98170); test: small molecules displacing peptide from XIAP – biochemical, IAP family, fluorescence polarization (AID 1018); assay type: functional
[12] = target: T7, E3 ubiquitin-protein ligase XIAP; test: Counter Screen using XIAP-Bir3 for Chemical Antagonists of Bir1/2 domains of IAP-family anti-apoptotic proteins. [Related pubchem assays (depositor defined):AID1018, AID1449, AID1514, AID1638, AID1749, AID1750, AID488957, AID488963]
[13] = target: T8, DNA repair protein RAD52 homolog (Homo sapiens, UniProt P43351); assay type: functional, biochemical
T8 sequence (P43351 whole entry): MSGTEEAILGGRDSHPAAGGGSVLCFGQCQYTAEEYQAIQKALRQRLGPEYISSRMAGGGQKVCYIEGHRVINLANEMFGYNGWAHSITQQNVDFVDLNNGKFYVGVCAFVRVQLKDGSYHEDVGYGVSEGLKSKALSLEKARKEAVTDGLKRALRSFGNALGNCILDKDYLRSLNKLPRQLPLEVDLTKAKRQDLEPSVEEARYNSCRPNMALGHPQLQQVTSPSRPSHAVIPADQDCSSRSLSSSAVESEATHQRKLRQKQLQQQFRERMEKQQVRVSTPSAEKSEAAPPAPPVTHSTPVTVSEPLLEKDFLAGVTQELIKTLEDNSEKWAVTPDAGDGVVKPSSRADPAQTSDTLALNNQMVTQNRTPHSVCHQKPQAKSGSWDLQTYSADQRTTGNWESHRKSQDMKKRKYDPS

[14] = target: SUMO E1/E2 (Homo sapiens, UniProt P63279+Q9UBE0+Q9UBT2); test: SAR analysis of SUMOylation using HTRF in an in-Vitro dose response assay. [Related pubchem assays (depositor defined):AID2006, AID2011, AID2018, AID2069, AID2658]; assay type: functional
[15] = target: CAAX prenyl protease 1 (Saccharomyces cerevisiae S288c, UniProt P47154); test: yeast CAAX protease Ste24 inhibition – biochemical, S. cerevisiae, plate reader, cherry-pick, dose response (AID 488815)
[16] = target: Trypsin (Sus scrofa, UniProt P00761); test: trypsin protease activity blockade – biochemical, quenched peptide fluorescence, cherry-pick, selectivity assay for Rce1 protease inhibitor project, dose response (AID 488789)
[17] = test system: Streptococcus; test: GAS UMAA2166 growth inhibition – luminescence, BacTiterGlo, counter-screen for streptokinase expression inhibitor project, dose response (AID 1915); assay type: functional, organism-based;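 note: potency for reduction of bacterial viability or growth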
[18] = test system: Streptococcus sp. 'group A'; test: Streptococcus pyogenes SK(-)GAS viability under kanamycin – luminescence, BacTiterGlo, confirmation, counter-screen for streptokinase expression inhibitor project, dose response (AID 1900); assay type: functional, organism-based
[19] = blockers of HIV-1 envelope-mediated cell-cell fusion – cherry-pick, dose response (AID 652057); assay type: functional, cell-based
[20] = test system: Jurkat; test: blockers of NF-kB activation in T cells – Jurkat, luciferase reporter, luminescence, B- and T-cell, dose response (AID 489004); assay type: functional, cell-based; settings: Homo sapiens;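 note: NF-kB luciferase reporter Jurkat cells stimulated with PMA plus ionomycin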
[21] = A Cell Based Secondary Assay To Explore Cytotoxicity of Compounds that Sensitize Mycobacterium Tuberculosis to Beta-Lactam Antibiotics.; assay type: functional
[22] = viability loss in CEM21 cells – cell-based, CellTiter-Glo luminescence, cherry-picked, cytotoxicity control for viral fusion inhibitor project, dose response (AID 652042); assay type: functional;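 note: potency for signal decrease meaning cytotoxicity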
[23] = blockers of HIV-1 ZM109 envelope-driven cell-cell fusion – HeLa effector, CEM target cells, luciferase, cherry-pick, dose response (AID 652058); assay type: functional, cell-based;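 note: luciferase signal from HIV-1 Env mediated cell-cell fusion of effector and target cells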
[24] = target: Luciferin 4-monooxygenase (Photinus pyralis, UniProt P08659); test: inhibition of purified Photinus pyralis luciferase – biochemical, luminescence, dose response (AID 1891)
[25] = test system: BJ; test: cells; assay type: functional, cell-based; settings: Homo sapiens
[26] = Luminescence Cell-Based Dose Confirmation HTS to Identify Inhibitors of Platelet Dense Granule Release. [Related pubchem assays: 1663 (Primary HTS), 1678 (Summary of Project)]; assay type: functional
[27] = test system: BJ; test: growth inhibition of engineered Ras-driven BJ cells – cell-based, alamar blue fluorescence, cherrypicked samples, dose response (AID 2631); assay type: functional; settings: Homo sapiens;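 note: confirmatory dose-response assay in RAS-dependent BJ fibroblasts engineered with TERT, LT and ST, with cytotoxicity read by fluorescence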
[28] = Shn3 3'UTR reporter signal decrease – cell-based, Clone20 osteoblasts, firefly luciferase, cherry-pick, set 2, Schnurri-3 inhibitor project, dose response (AID 720490); assay type: functional;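 note: actives lower the luminescence signal as inhibitors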
[29] = off-target signal loss in HeLa-CEM21 co-culture – HeLa F-luc CTL cells, cherry-picked, counter-screen for HIV-1 Env fusion inhibitor project, dose response (AID 652040); assay type: functional, cell-based;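 note: potency for signal decrease marking cytotoxic or nonspecific inhibition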
[30] = non-specific 3'UTR reporter inhibition in Clone20-Shn3RL – cell-based, Renilla luciferase, cherry-picked, counter-screen for Shn3 inhibitor project, dose response (AID 624133); assay type: functional
[31] = HIV-1 AD8 envelope cell-cell fusion blockers – cherry-pick, dose response (AID 652062); assay type: functional, cell-based;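 note: luciferase signal from cell-cell fusion driven by HIV-1 clade B AD8 Env; potency is for inhibitors of fusion seen as a drop in luminescence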
[32] = reduction of Shn3 3'UTR-driven luciferase in osteoblasts – cell-based, Clone20 osteoblasts, firefly luciferase, cherry-picked, dose response (AID 624132); assay type: functional;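 note: firefly luciferase luminescence from reporter carrying the Shn3 3'UTR in osteoblasts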
[33] = Luminescence-based counterscreen assay for KLF5 inhibitors: dose response cell-based high throughput screening assay to identify cytotoxic compounds using the IEC-6 intestinal epithelial cell line. [Related pubchem assays: 1700 (Primary screen.), 1834 (Confirmation screen.), 1858 (Summary AID.), 1905 (Counterscreen.)]; assay type: functional
[34] = DRD fibroblast viability loss – cell-based, non-viral oncogenic, luminescence, dose response (AID 1934); assay type: functional; settings: Homo sapiens
[35] = loss of viability in HepG2 cells – cell-based, CellTiter-Glo, cherry-picked, cytotoxicity control for Shn3 inhibitor project, dose response (AID 624134); assay type: functional
[36] = test system: BJ; test: BJ-TERT-LT-ST fibroblast viability loss – cell-based, RAS-independent, luminescence, dose response (AID 1935); assay type: functional; settings: Homo sapiens;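 note: BJ fibroblasts immortalized with TERT plus LT and ST oncogenes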
[37] = HEK-293T viability loss, compound-treated – cell-based, uHTS hits, cytotoxicity control for B/T-cell NF-kB inhibitor project, dose response (AID 489019); assay type: functional;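 note: IC50 reflects cytotoxicity as loss of cell viability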

T7 sequence (P98170 whole entry): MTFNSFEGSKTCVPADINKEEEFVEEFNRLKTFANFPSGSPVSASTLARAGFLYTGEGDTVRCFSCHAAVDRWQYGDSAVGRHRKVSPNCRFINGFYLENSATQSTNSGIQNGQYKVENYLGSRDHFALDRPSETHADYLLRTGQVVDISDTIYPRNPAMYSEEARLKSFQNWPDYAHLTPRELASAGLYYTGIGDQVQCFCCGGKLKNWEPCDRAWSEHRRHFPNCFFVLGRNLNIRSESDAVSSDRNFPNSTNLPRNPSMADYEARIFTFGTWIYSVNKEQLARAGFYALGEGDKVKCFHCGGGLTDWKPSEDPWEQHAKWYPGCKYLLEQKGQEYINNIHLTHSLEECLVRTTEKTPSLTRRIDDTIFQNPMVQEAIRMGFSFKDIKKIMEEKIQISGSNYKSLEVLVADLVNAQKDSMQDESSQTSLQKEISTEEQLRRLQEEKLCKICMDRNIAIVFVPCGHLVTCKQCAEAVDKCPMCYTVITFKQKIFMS
Chain of Lysine-specific demethylase 4C (Q9H3R0 whole entry): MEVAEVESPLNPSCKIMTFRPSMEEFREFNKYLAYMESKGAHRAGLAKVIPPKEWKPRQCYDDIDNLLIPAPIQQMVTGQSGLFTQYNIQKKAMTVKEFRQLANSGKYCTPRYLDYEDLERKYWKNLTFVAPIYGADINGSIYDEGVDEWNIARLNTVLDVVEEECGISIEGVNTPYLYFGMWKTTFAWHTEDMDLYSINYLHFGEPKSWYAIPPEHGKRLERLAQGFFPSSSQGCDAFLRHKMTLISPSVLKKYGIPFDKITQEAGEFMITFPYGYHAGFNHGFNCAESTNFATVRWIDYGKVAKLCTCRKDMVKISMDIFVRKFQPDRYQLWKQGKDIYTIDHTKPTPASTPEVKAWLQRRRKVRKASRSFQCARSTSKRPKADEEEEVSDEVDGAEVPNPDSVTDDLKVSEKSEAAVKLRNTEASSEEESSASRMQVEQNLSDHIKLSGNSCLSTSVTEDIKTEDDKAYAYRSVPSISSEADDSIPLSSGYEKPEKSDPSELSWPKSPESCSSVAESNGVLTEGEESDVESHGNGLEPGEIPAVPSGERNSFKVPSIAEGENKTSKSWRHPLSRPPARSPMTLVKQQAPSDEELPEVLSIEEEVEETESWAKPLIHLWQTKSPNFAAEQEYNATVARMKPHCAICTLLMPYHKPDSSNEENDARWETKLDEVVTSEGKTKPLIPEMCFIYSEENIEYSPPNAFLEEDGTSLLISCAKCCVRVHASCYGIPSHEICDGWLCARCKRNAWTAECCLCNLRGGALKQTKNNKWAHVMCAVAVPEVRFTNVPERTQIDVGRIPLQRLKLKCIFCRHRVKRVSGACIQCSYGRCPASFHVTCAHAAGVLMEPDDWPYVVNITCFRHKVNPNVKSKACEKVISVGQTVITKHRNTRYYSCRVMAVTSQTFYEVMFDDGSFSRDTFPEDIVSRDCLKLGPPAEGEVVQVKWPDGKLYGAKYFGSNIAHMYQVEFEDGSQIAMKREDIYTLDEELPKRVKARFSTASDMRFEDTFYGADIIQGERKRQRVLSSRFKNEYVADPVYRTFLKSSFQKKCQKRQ
Chain of Luciferin 4-monooxygenase (P08659 whole entry): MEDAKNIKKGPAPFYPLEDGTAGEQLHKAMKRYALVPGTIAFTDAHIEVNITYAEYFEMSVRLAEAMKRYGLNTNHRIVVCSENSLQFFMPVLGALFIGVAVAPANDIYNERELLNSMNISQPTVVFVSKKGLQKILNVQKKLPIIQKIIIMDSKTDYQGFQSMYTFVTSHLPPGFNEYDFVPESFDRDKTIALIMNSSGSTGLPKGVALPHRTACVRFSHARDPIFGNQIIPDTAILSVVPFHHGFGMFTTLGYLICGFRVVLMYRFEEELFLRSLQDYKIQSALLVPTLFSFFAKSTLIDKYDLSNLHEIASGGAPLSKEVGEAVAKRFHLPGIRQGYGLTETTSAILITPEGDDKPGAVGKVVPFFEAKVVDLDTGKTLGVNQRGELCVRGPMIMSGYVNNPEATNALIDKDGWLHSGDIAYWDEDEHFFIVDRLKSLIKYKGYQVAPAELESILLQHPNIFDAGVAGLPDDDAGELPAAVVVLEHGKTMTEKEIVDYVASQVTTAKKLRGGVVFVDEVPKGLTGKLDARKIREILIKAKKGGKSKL
Chain of CAAX prenyl protease 1 (P47154 whole entry): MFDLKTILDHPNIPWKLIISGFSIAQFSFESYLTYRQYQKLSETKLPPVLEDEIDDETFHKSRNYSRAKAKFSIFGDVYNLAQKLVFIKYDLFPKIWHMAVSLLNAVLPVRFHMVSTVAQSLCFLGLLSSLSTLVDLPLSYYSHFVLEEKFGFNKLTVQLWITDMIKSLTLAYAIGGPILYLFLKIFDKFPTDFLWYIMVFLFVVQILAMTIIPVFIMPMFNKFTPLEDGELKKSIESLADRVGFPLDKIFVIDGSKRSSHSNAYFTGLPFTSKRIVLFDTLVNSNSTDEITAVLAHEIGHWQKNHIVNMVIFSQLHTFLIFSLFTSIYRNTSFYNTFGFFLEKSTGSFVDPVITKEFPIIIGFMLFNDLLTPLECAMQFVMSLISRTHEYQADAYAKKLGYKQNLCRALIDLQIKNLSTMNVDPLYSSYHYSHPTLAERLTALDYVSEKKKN
Chain of SUMO E1/E2 (Q9UBE0 whole entry): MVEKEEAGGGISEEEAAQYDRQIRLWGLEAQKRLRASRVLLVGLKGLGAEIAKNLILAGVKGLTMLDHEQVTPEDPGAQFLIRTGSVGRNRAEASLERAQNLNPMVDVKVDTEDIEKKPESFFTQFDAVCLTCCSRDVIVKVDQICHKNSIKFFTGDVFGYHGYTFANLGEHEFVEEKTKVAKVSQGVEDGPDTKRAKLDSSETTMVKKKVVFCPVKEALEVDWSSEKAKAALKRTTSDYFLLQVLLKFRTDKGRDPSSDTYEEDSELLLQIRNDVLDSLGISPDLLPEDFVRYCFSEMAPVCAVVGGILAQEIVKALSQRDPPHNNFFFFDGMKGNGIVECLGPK
Chain of SUMO E1/E2 (Q9UBT2 whole entry): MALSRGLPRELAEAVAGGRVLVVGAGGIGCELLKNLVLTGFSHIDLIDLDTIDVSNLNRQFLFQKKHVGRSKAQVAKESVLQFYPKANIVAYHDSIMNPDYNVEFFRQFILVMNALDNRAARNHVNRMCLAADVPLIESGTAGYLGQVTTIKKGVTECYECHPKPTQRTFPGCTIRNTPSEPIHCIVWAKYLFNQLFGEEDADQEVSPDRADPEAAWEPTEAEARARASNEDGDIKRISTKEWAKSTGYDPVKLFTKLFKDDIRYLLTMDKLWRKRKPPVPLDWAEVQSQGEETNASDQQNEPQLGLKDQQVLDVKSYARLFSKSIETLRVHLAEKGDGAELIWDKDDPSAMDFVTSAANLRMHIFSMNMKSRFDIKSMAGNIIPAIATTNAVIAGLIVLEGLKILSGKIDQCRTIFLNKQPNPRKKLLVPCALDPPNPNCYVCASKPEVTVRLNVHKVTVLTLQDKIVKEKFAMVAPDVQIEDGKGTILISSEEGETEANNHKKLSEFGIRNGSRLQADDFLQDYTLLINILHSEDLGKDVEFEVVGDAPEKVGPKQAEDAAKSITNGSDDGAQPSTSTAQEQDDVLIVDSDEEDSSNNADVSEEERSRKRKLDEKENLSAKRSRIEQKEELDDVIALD
Chain of SUMO E1/E2 (P63279 whole entry): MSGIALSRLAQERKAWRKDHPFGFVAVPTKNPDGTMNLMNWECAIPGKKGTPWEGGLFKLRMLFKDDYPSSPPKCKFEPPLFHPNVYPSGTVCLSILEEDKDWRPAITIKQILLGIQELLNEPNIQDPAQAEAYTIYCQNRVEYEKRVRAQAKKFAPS
Chain of Trypsin (P00761 whole entry): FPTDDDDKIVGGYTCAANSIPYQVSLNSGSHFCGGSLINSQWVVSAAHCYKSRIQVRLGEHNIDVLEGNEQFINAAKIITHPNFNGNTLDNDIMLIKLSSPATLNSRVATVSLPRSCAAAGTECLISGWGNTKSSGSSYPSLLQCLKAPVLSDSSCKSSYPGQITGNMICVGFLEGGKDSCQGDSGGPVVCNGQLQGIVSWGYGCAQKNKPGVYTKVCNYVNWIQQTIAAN

CCOc1cccc2sc(N(CCCN(C)C)C(=O)c3ccc(S(=O)(=O)N(C)Cc4ccccc4)cc3)nc12
IC50 [1]: 8.12 µM (active)
IC50 [2]: 8.54 µM (active)
IC50 [3]: > 20 µM (inactive)
EC50 [4]: > 100 µM (inactive)

Cc1noc(NS(=O)(=O)c2ccc(NC(=O)c3nn(-c4ccccc4)ccc3=O)cc2)c1C
IC50 [5]: > 79.4 µM (inactive)
IC50 [6]: > 79.4 µM (inactive)
IC50 [7]: > 79.4 µM (inactive)

CC1(C)OC(c2ccccc2)=C/C(=C/C=C2C(=O)NC(=S)NC2=O)O1
AC50 [8]: 11.6 µM (active)
EC50 [9]: 13.9 µM (active)
EC50 [10]: 11 µM (active)

Cc1ccsc1/C=C(\C#N)C(=O)NCc1ccco1
IC50 [11]: > 100 µM (not active)
IC50 [12]: > 100 µM (inactive)

CCN(CC)CCNC(=O)c1ccc(NC(=O)c2cc(-c3ccncc3)nc3ccccc23)cc1
IC50 [1]: > 20 µM (inactive)
IC50 [2]: 17 µM (active)
AC50 [13]: 20.4 µM (active)
IC50 [3]: > 20 µM (inactive)

COc1ccc(CNC(=O)COC(=O)c2cc(-c3cccs3)nc3ccccc23)cc1
IC50 [14]: 43.3 µM (active)

CC1COc2c(N3CCN(C)CC3)c(F)cc3c(=O)c(C(=O)O)cn1c23 (stereo not drawn) [OFLOXACIN]
AC50 [15]: 1.95 µM (active)
AC50 [16]: 9.26 µM (active)
EC50 [17]: 4.11 µM (active)
EC50 [18]: 3.03 µM (active)

Cc1ccc2c(c1)C(c1ccccc1)N(C(=O)c1ccc(Br)o1)CC(=O)N2 (stereo not drawn)
IC50 [11]: > 100 µM (not active)
IC50 [12]: > 100 µM (inactive)

COc1ccc(C(=O)Nc2nc3ccccc3s2)c(OC)c1
AC50 [19]: 0.757 µM (active)
IC50 [20]: < 0.16 µM (active)
CC50 [21]: 29.7 µM (active)
AC50 [22]: 14.2 µM (active)
AC50 [23]: 6.04 µM (active)
EC50 [24]: 0.241 µM (active)
EC50 [25]: 5.76 µM (active)
EC50 [26]: 1.54 µM (active)
EC50 [27]: > 133 µM (inactive)
AC50 [28]: 0.45 µM (active)
AC50 [29]: < 0.26 µM (active)
AC50 [30]: 43.8 µM (active)
AC50 [31]: 0.664 µM (active)
AC50 [32]: 0.523 µM (active)
IC50 [33]: 7.69 µM (active)
EC50 [34]: 7.2 µM (active)
AC50 [35]: 33.5 µM (active)
EC50 [36]: 17.1 µM (active)
IC50 [37]: > 80 µM (inactive)

C=CCn1c(C)c(C=C2C(=O)NC(=O)NC2=O)c2ccccc21
AC50 [8]: 2.9 µM (active)
